“And” between values parts separate entries of the source, which are not always exact repeats. Identical values can stand only once. Toxic doses and inconclusive results are not listed. Cut-off read from the data, not from the text of the source: active = T/C of 150% or more; inactive = T/C below 125%.
Test system: L1210 leukemia ip in BDF1 mice, survival T/C
Test: NCI In Vivo Anticancer Drug Screen. Data for tumor model L1210 Leukemia (intraperitoneal) in B6D2F1 (BDF1) mice
Conditions: endpoint: mean survival time, higher = longer survival
Outline: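 Each compound was tested against a transplantable tumor grown in mice. The endpoint was survival, with treated animals benchmarked against vehicle controls as a simple ratio.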

[1] = dose: 100.0 mg/kg/injection, schedule: Q01DX001 (ip), vehicle: saline
[2] = dose: 100.0 mg/kg/injection, schedule: Q04DX003 (ip), vehicle: saline
[3] = dose: 100.0 mg/kg/injection, schedule: Q04DX003 (ip), vehicle: Klucel (hydroxypropylcellulose) (HPC)
[4] = dose: 200.0 mg/kg/injection, schedule: Q04DX003 (ip), vehicle: Klucel (hydroxypropylcellulose) (HPC)
[5] = dose: 400.0 mg/kg/injection, schedule: Q04DX003 (ip), vehicle: Klucel (hydroxypropylcellulose) (HPC)
[6] = dose: 75.0 mg/kg/injection, schedule: Q01DX001 (ip), vehicle: saline
[7] = dose: 150.0 mg/kg/injection, schedule: Q01DX001 (ip), vehicle: saline
[8] = dose: 50.0 mg/kg/injection, schedule: Q01DX001 (ip), vehicle: Klucel (hydroxypropylcellulose) (HPC)
[9] = dose: 100.0 mg/kg/injection, schedule: Q01DX001 (ip), vehicle: Klucel (hydroxypropylcellulose) (HPC)
[10] = dose: 200.0 mg/kg/injection, schedule: Q01DX001 (ip), vehicle: saline
[11] = dose: 400.0 mg/kg/injection, schedule: Q01DX001 (ip), vehicle: saline
[12] = dose: 200.0 mg/kg/injection, schedule: Q04DX003 (ip), vehicle: saline
[13] = dose: 100.0 mg/kg/injection, schedule: Q01DX009 (ip), vehicle: Klucel (hydroxypropylcellulose) (HPC)
[14] = dose: 200.0 mg/kg/injection, schedule: Q01DX009 (ip), vehicle: Klucel (hydroxypropylcellulose) (HPC)
[15] = dose: 400.0 mg/kg/injection, schedule: Q01DX009 (ip), vehicle: Klucel (hydroxypropylcellulose) (HPC)

Measured: T/C

CNC1CC2CCC(C2)C1(O)c1ccccc1 (configuration not stated)
inactive: dose: 25.0 mg/kg/injection, schedule: Q04DX003 (ip), vehicle: saline 91 % of control | dose: 50.0 mg/kg/injection, schedule: Q04DX003 (ip), vehicle: saline 113 % of control | [1] 100 % of control | [2] 102 % of control

COc1ncccn1
inactive: dose: 75.0 mg/kg/injection, schedule: Q01DX009 (ip), vehicle: saline 93 % of control

CC1CCCC(NC(=O)NCCCl)C1 (configuration not stated)
inactive: [3] 95 % of control | [4] 87 % of control | [5] 98 % of control

CC(C)(CO)NCc1ccccc1F
inactive: [6] 103 % of control | [7] 104 % of control | dose: 300.0 mg/kg/injection, schedule: Q01DX001 (ip), vehicle: saline 98 % of control

CN(C)CCCN1CCC2(CC1)C(C#N)C(=O)NC(=O)C2C#N (configuration not stated)
inactive: dose: 100.0 mg/kg/injection, schedule: Q04DX002 (ip), vehicle: saline 92 % of control | dose: 200.0 mg/kg/injection, schedule: Q04DX002 (ip), vehicle: saline 100 % of control | dose: 400.0 mg/kg/injection, schedule: Q04DX002 (ip), vehicle: saline 111 % of control

CCCCN1C(=O)C(c2ccccc2)C2(CCN(C)CC2)C1=O (configuration not stated)
inactive: dose: 25.0 mg/kg/injection, schedule: Q01DX001 (ip), vehicle: Klucel (hydroxypropylcellulose) (HPC) 93 % of control | [8] 91 % of control | [9] 97 % of control and 98 % of control

c1ccc([As](c2ccccc2)c2ccccc2)cc1
inactive: dose: 50.0 mg/kg/injection, schedule: Q01DX001 (ip), vehicle: other 103 % of control | dose: 100.0 mg/kg/injection, schedule: Q01DX001 (ip), vehicle: other 103 % of control | dose: 200.0 mg/kg/injection, schedule: Q01DX001 (ip), vehicle: other 97 % of control | dose: 400.0 mg/kg/injection, schedule: Q01DX001 (ip), vehicle: other 103 % of control

C[CH2][Pb]([CH2]C)([CH2]C)[S]c1ccccn1
inactive: dose: 25.0 mg/kg/injection, schedule: Q04DX002 (sc), vehicle: olive oil, sesame oil, peanut oil 95 % of control | dose: 50.0 mg/kg/injection, schedule: Q04DX002 (sc), vehicle: olive oil, sesame oil, peanut oil 100 % of control | dose: 100.0 mg/kg/injection, schedule: Q04DX002 (sc), vehicle: olive oil, sesame oil, peanut oil 100 % of control

CCOC(=O)NCc1cccc2ccccc12
inactive: [8] 93 % of control | [9] 98 % of control | dose: 200.0 mg/kg/injection, schedule: Q01DX001 (ip), vehicle: Klucel (hydroxypropylcellulose) (HPC) 90 % of control | dose: 400.0 mg/kg/injection, schedule: Q01DX001 (ip), vehicle: Klucel (hydroxypropylcellulose) (HPC) 86 % of control

COC(=O)CC(c1ccc2c(c1)OCO2)N1CCOCC1 (configuration not stated)
inactive: [1] 119 % of control | [10] 113 % of control | [11] 104 % of control

CCOCC[n+]1ccc(C)cc1
inactive: [2] 107 % of control | [12] 95 % of control

COc1nn(C)c(=O)c2cccnc12
inactive: [6] 96 % of control | [7] 98 % of control

c1ccc2c(c1)CCc1cc3c(nc1-2)-c1ccccc1CC3
inactive: [13] 97 % of control | [3] 100 % of control | [14] 98 % of control | [4] 100 % of control | [15] 95 % of control | [5] 94 % of control

O=C(N/N=C/c1ccc2c(c1)CCC2)Nc1ccc([N+](=O)[O-])cc1[N+](=O)[O-]
inactive: [2] 91 % of control | [12] 98 % of control | dose: 400.0 mg/kg/injection, schedule: Q04DX003 (ip), vehicle: saline 101 % of control

CN=C1C=C(NC)C(F)(F)C1(F)F
inactive: dose: 6.25 mg/kg/injection, schedule: Q01DX009 (ip), vehicle: saline sonified 96 % of control | dose: 12.5 mg/kg/injection, schedule: Q01DX009 (ip), vehicle: saline sonified 100 % of control | dose: 12.5 mg/kg/injection, schedule: Q04DX003 (ip), vehicle: Klucel (hydroxypropylcellulose) (HPC) 98 % of control | dose: 25.0 mg/kg/injection, schedule: Q01DX009 (ip), vehicle: saline sonified 91 % of control | dose: 25.0 mg/kg/injection, schedule: Q04DX003 (ip), vehicle: Klucel (hydroxypropylcellulose) (HPC) 98 % of control | dose: 50.0 mg/kg/injection, schedule: Q04DX003 (ip), vehicle: Klucel (hydroxypropylcellulose) (HPC) 97 % of control

CCCCC(=O)N/N=C\c1cc(Cl)ccc1[N+](=O)[O-]
inactive: dose: 100.0 mg/kg/injection, schedule: Q01DX001 (ip), vehicle: carboxymethylcellulose (CMC) 96 % of control | dose: 200.0 mg/kg/injection, schedule: Q01DX001 (ip), vehicle: carboxymethylcellulose (CMC) 91 % of control | dose: 400.0 mg/kg/injection, schedule: Q01DX001 (ip), vehicle: carboxymethylcellulose (CMC) 96 % of control

Nc1ncnc2c1ncn2C1CCC(CO)O1 (configuration not stated)
inactive: [1] 103 % of control | [10] 115 % of control | [11] 105 % of control

CC12CCC(O)CC1CCC1C3CC/C(=C\c4ccco4)C(=O)C3CCC12 (configuration not stated)
inactive: dose: 50.0 mg/kg/injection, schedule: Q01DX001 (sc), vehicle: steriod suspending solution 105 % of control | dose: 100.0 mg/kg/injection, schedule: Q01DX001 (sc), vehicle: steriod suspending solution 89 % of control | dose: 200.0 mg/kg/injection, schedule: Q01DX001 (sc), vehicle: steriod suspending solution 91 % of control

CSc1ccc(NC(=O)Nc2cc(C)ccc2Cl)cc1
inactive: [13] 86 % of control | [14] 93 % of control | [15] 88 % of control

Source: PubChem BioAssay AID248 (DTP/NCI, 2004)
